Measured values from patent publication US20030096264A1, “Multi-parameter high throughput screening assays (MPHTS)” (Psychiatric Genomics, Inc., priority 2001, published 2003).

Legend:
[1] = tested on: human neuroblastoma cell line NBFL; assay: Microarray expression profile of NBFL cells incubated with valproate; format: cell-based; conditions: 0.5 mM valproate, 24 h
Method: The additional signature genes described here were identified using a human neuroblastoma cell line that is known in the art as NBFL (see, Symes et al., Proc. Natl. Acad. Sci. U.S.A. 1993, 90(2):572-576). NBFL cell cultures were maintained in DMEM medium supplemented with L-glutmine, antibiotics, 10% fetal bovine serum and 5% horse serum. Before treatment, cells were passaged, allowed to adhere overnight, and the medium was replaced with serum free medium for 24 hours. The cells were then incubated for 24 hours in either the presence or absence of valproate (0.5 mM), and in the absence of serum. mRNA was extracted from each group of cultures and sent to a commercial company for expression profiling by hybridization to microarrays. Data from at least three independent microarray experiments was then statistically evaluated to identify genes that are differentially expressed in the presence of valproate, relative to expression levels in the absence of valproate.
Table 3, below, list each of the genes whose expression level changed in cells exposed to valproate, identified using a UniGem V2 array from Incyte (Palo Alto, Calif.) and also provides the expression ratio ((), defined in Example 1, supra) measured for each gene. Each gene is identified in Table 3 by its common name, as well as by the GenBank Accession and Gene Identification (GI) numbers for its nucleotide sequence. A cDNA sequence for each gene listed in Table 3 is also provided in the accompanying Sequence Listing, and its sequence identifier is specified in Table 3 along with the GenBank Accession number. Table 3 also indicates the Unigene cluster number for each gene from a recent build of the NCBI Unigene database.

NBFL cell line = assay: RT-PCR validation of differential expression in NBFL cells treated with valproate; format: cell-based, human; conditions: valproate treated vs untreated, normalized to GAPDH
Method: To validate differential expression measurements that were obtained using microarrays, expression levels were also measured using a reverse transcription polymerase chain reaction (RT-PCR) assay for five genes having the highest expression ratio in Table 3: nidogen (SEQ ID NO:25; σ=1.7), silver (SEQ ID NO:26; σ=1.6), dopamine β-hydroxylase (SEQ ID NO:53; σ=-1.7), dopa decarboxylase (SEQ ID NO:54; σ=−2) and chromogranin B (SEQ ID NO:55; σ=−2.1). These RT-PCR experiments were performed according to routine methods that are known in 10 the art. Briefly, RNA from the NBFL cell line treated with or without valproate was primed with oligo-dT and reverse transcribed. The resultant cDNA was subjected to either 25 or 30 rounds of PCR amplification, depending on the absolute expression level of the gene tested. The amount of PCR product generated from each sample was normalized to the amount of GAPDH amplified from each sample and a fold-change relative to valproate treatment was calculated. β-actin was used as an additional control.
The results from these experiments are shown graphically in FIG. 3. As expected, no change in β-actin (B-ACT) expression was detected (+/− one-fold) when cells were treated with valproate. However, a greater than 2-fold change in expression levels was measured for each of the five other genes tested: nidogoen (NID), silver (SIL), dopamine β-hydroxylase (DBH), dopa decarboxylase (DDC) and chromogranin B (CG-B).

CCCC(CCC)C(=O)O [valproate]
expression ratio Φ: nidogen (NID) ([1]; serum free, SEQ ID NO: 25): 1.7
expression ratio Φ: silver (SIL) ([1]; SEQ ID NO: 26): 1.6
expression ratio Φ: Homo sapiens clone 23798 and 23825 ([1]; SEQ ID NO: 27): 1.5
expression ratio Φ: LIM protein ([1]; SEQ ID NO: 28): 1.4
expression ratio Φ: carnitine palmitoyltransferase II ([1]; SEQ ID NO: 29): 1.4
expression ratio Φ: iduronate-2-sulfatase ([1]; SEQ ID NO: 30): 1.4
expression ratio Φ: dynamin 1 ([1]; SEQ ID NO: 31): 1.4
expression ratio Φ: myosin IB ([1]; SEQ ID NO: 32): 1.4
expression ratio Φ: EGF-like-domain ([1]; SEQ ID NO: 33): 1.4
expression ratio Φ: islet cell autoantigen 1 ([1]; SEQ ID NO: 34): −1.4
expression ratio Φ: regulator of G-protein signaling 5 ([1]; SEQ ID NO: 35): −1.4
expression ratio Φ: XPA binding protein 1 ([1]; SEQ ID NO: 36): −1.4
expression ratio Φ: P311 protein ([1]; SEQ ID NO: 37): −1.4
expression ratio Φ: SWI/SNF ([1]; SEQ ID NO: 38): −1.4
expression ratio Φ: ALL1 ([1]; SEQ ID NO: 39): −1.4
expression ratio Φ: RNA binding motif ([1]; SEQ ID NO: 40): −1.4
expression ratio Φ: SMAD1 ([1]; SEQ ID NO: 41): −1.4
expression ratio Φ: NADH dehydrogenase (ubiquinone) ([1]; SEQ ID NO: 42): −1.4
expression ratio Φ: calmodulin 2 ([1]; SEQ ID NO: 43): −1.4
expression ratio Φ: vimentin ([1]; SEQ ID NO: 44): −1.4
expression ratio Φ: GRB2-associated binding protein 1 ([1]; SEQ ID NO: 45): −1.5
expression ratio Φ: splicing factor 3b (subunit 3) ([1]; SEQ ID NO: 46): −1.5
expression ratio Φ: DKFZp547DO26_r1 (EST) ([1]; SEQ ID NO: 47): −1.5
expression ratio Φ: insulinoma-associated 1 (INSM1) ([1]; SEQ ID NO: 48): −1.6
expression ratio Φ: neuroendocrine secretory protein 55 ([1]; SEQ ID NO: 49): −1.6
expression ratio Φ: v-yes-1 ([1]; SEQ ID NO: 50): −1.6
expression ratio Φ: chromodomain helicase DNA binding ([1]; SEQ ID NO: 51): −1.6
expression ratio Φ: cholinergic receptor ([1]; SEQ ID NO: 52): −1.7
expression ratio Φ: dopmine β-hydroxylase (DBH) ([1]; SEQ ID NO: 53): -1.7
expression ratio Φ: dopa decarboxylase (DDC) ([1]; SEQ ID NO: 54): −2
expression ratio Φ: chromogranin B (CG-B) ([1]; SEQ ID NO: 55): −2.1
change in expression level by RT-PCR: chromogranin B (CG-B) (NBFL cell line): greater than 2 fold
change in expression level by RT-PCR: dopa decarboxylase (DDC) (NBFL cell line): greater than 2 fold
change in expression level by RT-PCR: dopamine β-hydroxylase (DBH) (NBFL cell line): greater than 2 fold
change in expression level by RT-PCR: nidogoen (NID) (NBFL cell line): greater than 2 fold
change in expression level by RT-PCR: silver (SIL) (NBFL cell line): greater than 2 fold
